The text below walks through data of US20250263650A1, “FUNGUS AND MICROBIAL AGENT FOR TREATING MERCURY CONTAMINATION, USE THEREOF, MERCURY REMOVAL METHOD, AND METHOD FOR I[…] CAPABLE OF TREATING MERCURY CONTAMINATION” (ZHEJIANG UNIVERSITY, priority 2021, published 2025).

This series has as its system Zea mays L. seeds. Put plainly: Tolerance of Zea mays L. to methylmercury and divalent mercury (seed germination in soil). It is filed as in vivo. How it is done:
Methylmercury was added to the soil, where five concentrations of 0 μg/kg, 2.5 μg/kg, 5 μg/kg, 7.5 μg/kg, and 10 μg/kg were set. Divalent mercury was added to the soil, where five concentrations of 0 mg/kg, 20 mg/kg, 30 mg/kg, 40 mg/kg, and 50 mg/kg were set. The soil was placed in a cultivation vessel (with a height of 14 cm and a diameter of 7 cm).
Seed disinfection and cultivation: Zea mays L. seeds were disinfected for 5 min in 1% sodium hypochlorite and then washed three times with sterile water (1 min each time), disinfected for 10 min with 15% H2O2 and then washed three times with sterile water (1 min each time), and then placed in a 2% water agar medium and vernalized overnight at 4° C. Then, the pretreated seeds were sown into the soil, and 10 P. purpureum seeds or 5 Zea mays L. seeds were sown in each vessel.

With `[CH3][Hg][Cl]` [methylmercury], the “germination rate of the Zea mays L. seeds” value is, setting by setting: (soil with 2.5 μg/kg methylmercury) 100%; (soil with 10 μg/kg methylmercury) 80%.
On to `[Hg+2]` [divalent mercury], for which the “germination rate of the Zea mays L. seeds” value is listed as 100% (soil with 20 mg/kg divalent mercury), 80% (soil with 30 mg/kg divalent mercury) and 60% (soil with 40 mg/kg divalent mercury).
